The source of these data is patent publication US12371428B2 (Exelixis, Inc., priority 2019, dated 2025).

The target of test [1] is Human KDR (residues 790-1356) (Homo sapiens (Human), UniProt P35968). Kind of test: Human KDR kinase assay, HTRF KinEase (Example B-2). The class given is biochemical. The note with it: protocol of Example B-2 (other compounds). The procedure, abridged:
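Human KDR residues 790-1356 (0.1 ng/well) in buffer with 5 mM MgCl2, 1 mM MnCl2, 1 mM DTT, biotinylated peptide substrate, ATP at Km (4.0 μM), 3% DMSO, 10 compound concentrations; 40 min, room temperature. EDTA stop, streptavidin-XL665/Eu-TK antibody HTRF read 665/620 nm; 4-parameter IC50.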
(TR-FRET usually uses a lanthanide donor and a delayed reading to cut background.)

Test [2] has as its target KDR (phospho-KDR, VEGF165-stimulated HUVEC cells) (Homo sapiens (Human), UniProt P35968). The test is described as follows: KDR autophosphorylation ELISA in HUVEC cells (Example G). The class given is cell-based. Conditions: cellular activity; KDR autophosphorylation ELISA in HUVEC cells. The procedure, abridged:
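IC50 values derive from nonlinear curve fitting of phospho-KDR levels measured by ELISA and interpolated from a phosphoprotein standard. Beforehand, starved HUVECs received compound (0.3% DMSO vehicle) for one hour and were activated with VEGF165 at 100 ng/mL for 5 min.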

Structures are written as SMILES.

A word on the IC50: it is the concentration that inhibits the measured activity by half. A low value points to higher potency.

Sequence of KDR (phospho-KDR, VEGF165-stimulated HUVEC cells) (P35968 20-1356): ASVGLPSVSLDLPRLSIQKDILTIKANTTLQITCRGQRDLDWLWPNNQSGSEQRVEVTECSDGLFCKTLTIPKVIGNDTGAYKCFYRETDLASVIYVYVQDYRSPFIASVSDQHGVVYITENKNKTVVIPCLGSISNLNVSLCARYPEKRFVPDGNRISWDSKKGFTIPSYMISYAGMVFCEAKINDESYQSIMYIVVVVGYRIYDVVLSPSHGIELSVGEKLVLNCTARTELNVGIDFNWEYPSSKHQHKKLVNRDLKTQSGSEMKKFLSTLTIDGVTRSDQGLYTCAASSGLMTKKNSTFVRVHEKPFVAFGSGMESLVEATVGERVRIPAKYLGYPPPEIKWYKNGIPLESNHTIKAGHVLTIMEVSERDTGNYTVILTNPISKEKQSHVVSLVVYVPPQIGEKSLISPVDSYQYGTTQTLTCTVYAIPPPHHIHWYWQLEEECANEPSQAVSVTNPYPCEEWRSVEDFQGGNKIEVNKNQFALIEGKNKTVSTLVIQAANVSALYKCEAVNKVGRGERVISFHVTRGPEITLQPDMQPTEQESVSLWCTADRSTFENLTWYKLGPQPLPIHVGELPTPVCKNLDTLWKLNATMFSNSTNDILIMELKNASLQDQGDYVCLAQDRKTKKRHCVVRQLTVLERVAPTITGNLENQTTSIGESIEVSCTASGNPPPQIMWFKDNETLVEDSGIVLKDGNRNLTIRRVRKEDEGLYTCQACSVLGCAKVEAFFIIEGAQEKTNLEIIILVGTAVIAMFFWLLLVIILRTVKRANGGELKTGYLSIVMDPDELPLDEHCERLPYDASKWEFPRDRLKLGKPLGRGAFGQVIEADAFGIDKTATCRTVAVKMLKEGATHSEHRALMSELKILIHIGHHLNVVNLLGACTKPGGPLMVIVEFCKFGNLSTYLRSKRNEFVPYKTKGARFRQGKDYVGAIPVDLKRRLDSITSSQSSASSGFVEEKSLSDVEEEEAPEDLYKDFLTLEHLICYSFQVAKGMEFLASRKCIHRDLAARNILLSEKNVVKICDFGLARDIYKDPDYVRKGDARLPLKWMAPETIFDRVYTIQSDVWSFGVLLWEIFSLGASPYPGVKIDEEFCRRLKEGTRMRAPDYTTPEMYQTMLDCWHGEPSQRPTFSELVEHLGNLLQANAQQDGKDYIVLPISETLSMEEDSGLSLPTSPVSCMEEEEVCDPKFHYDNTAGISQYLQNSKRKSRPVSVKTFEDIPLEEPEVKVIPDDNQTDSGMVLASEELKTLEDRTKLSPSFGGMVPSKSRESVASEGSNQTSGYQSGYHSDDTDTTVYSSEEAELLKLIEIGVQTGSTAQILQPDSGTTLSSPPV
Sequence of Human KDR (residues 790-1356) (P35968 790-1356): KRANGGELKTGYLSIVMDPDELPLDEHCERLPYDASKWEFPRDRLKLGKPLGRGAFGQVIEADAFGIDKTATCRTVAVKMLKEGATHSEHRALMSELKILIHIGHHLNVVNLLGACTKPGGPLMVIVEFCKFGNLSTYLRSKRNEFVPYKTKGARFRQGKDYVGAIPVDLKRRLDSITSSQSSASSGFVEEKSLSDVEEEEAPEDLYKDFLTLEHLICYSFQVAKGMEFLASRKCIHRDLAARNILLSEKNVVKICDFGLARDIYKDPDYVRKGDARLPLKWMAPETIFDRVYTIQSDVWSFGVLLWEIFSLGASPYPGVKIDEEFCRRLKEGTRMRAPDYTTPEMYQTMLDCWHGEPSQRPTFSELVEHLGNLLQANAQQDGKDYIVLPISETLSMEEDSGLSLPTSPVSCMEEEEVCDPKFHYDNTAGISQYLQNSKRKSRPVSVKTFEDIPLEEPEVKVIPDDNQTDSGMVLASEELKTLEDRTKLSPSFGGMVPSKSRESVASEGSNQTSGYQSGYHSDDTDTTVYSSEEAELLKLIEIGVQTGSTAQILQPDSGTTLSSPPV

For the compound `COc1ccc2nccc(Oc3ccc(NC(=O)c4c(C)nc(C)c(-c5ccc(F)cc5)c4O)cc3)c2n1` [Compound 340, 5-(4-fluorophenyl)-4-hydroxy-N-[4-[(6-methoxy-1,5-naphthyridin-4-yl)oxy]phenyl]-2,6-dimethylpyridine-3-carboxamide], the IC50 in test [1] and in test [2] was less than 100 nM in each case.

For `COc1ccc2nccc(Oc3ccc(NC(=O)c4nccn(-c5ccc(F)cc5)c4=O)cc3F)c2n1` [Compound 380, N-[3-fluoro-4-[(6-methoxy-1,5-naphthyridin-4-yl)oxy]phenyl]-4-(4-fluorophenyl)-3-oxopyrazine-2-carboxamide], the IC50 in test [1] and in test [2] was greater than 300 nM in each case.

Turning to `COc1cc2nccc(Oc3ccc(NC(=O)c4cn(C)c(C)c(-c5ccc(F)cc5)c4=O)c(F)c3F)c2nc1OC` [Compound 390, N-[4-[(6,7-dimethoxy-1,5-naphthyridin-4-yl)oxy]-2,3-difluorophenyl]-5-(4-fluorophenyl)-1,6-dimethyl-4-oxopyridine-3-carboxamide], the half-maximal inhibitory concentration (IC50) is greater than 300 nM in test [1] and less than 100 nM in test [2].

With `COc1ccc2nccc(Oc3ccc(NC(=O)c4nccn(-c5ccc(F)cc5)c4=O)cc3)c2n1` [Compound 383, 4-(4-fluorophenyl)-N-[4-[(6-methoxy-1,5-naphthyridin-4-yl)oxy]phenyl]-3-oxopyrazine-2-carboxamide], the IC50 in test [1] and in test [2] was greater than 300 nM throughout.

Consider `C=C(C)c1cc(C(=O)Nc2ccc(Oc3ccnc4cc(OC)c(OC)nc34)c(F)c2)c(=O)n(-c2ccc(F)cc2)c1C` [Compound 367, N-[4-[(6,7-dimethoxy-1,5-naphthyridin-4-yl)oxy]-3-fluorophenyl]-1-(4-fluorophenyl)-6-methyl-2-oxo-5-prop-1-en-2-ylpyridine-3-carboxamide], for which the IC50 was greater than 300 nM in test [1] and 100 to 300 nM in test [2].

As to `COc1cnc2c(Oc3ccc(NC(=O)c4nccn(-c5ccc(F)cc5)c4=O)cc3F)ccnc2c1` [Compound 381, N-[3-fluoro-4-[(7-methoxy-1,5-naphthyridin-4-yl)oxy]phenyl]-4-(4-fluorophenyl)-3-oxopyrazine-2-carboxamide], the IC50 in test [1] and in test [2] was greater than 300 nM in each case.

For the compound `CCn1cc(C(=O)Nc2ccc(Oc3ccnc4cc(OC)c(OC)nc34)c(F)c2)c(=O)c(-c2ccc(F)cc2)c1CO` [Compound 271, N-[4-[(6,7-Dimethoxy-1,5-naphthyridin-4-yl)oxy]-3-fluorophenyl]-1-ethyl-5-(4-fluorophenyl)-6-(hydroxymethyl)-4-oxopyridine-3-carboxamide], the results for the IC50 in test [1] and in test [2] were less than 100 nM and 100 to 300 nM, respectively.

Consider `COc1cc2nccc(Oc3ccc(NC(=O)c4ccnn(-c5ccc(F)cc5)c4=O)cc3F)c2nc1OC` [Compound 386, N-[4-[(6,7-dimethoxy-1,5-naphthyridin-4-yl)oxy]-3-fluorophenyl]-2-(4-fluorophenyl)-3-oxopyridazine-4-carboxamide], for which the 50% inhibitory concentration (IC50) in test [1] and in test [2] was less than 100 nM throughout.

Consider `COc1ccc2nccc(Oc3ccc(NC(=O)c4c(C)ccn(-c5ccc(F)cc5)c4=O)cc3F)c2n1` [Compound 287, N-[3-Fluoro-4-[(6-methoxy-1,5-naphthyridin-4-yl)oxy]phenyl]-1-(4-fluorophenyl)-4-methyl-2-oxopyridine-3-carboxamide], for which the IC50 in test [1] and in test [2] was less than 100 nM in each case.

As to `COc1cc2nccc(Oc3ccc(NC(=O)c4cn(C)c(C)c(-c5ccc(F)cc5)c4=O)cc3Cl)c2nc1OC` [Compound 388, N-[3-chloro-4-[(6,7-dimethoxy-1,5-naphthyridin-4-yl)oxy]phenyl]-5-(4-fluorophenyl)-1,6-dimethyl-4-oxopyridine-3-carboxamide], the half-inhibitory concentration (IC50) in test [1] and in test [2] was less than 100 nM in each case.

For `CCn1cc(C(=O)Nc2ccc(Oc3ccnc4cc(OC)c(OC)nc34)cc2)c(=O)c(-c2ccc(F)cc2)c1CO` [Compound 272, N-[4-[(6,7-Dimethoxy-1,5-naphthyridin-4-yl)oxy]phenyl]-1-ethyl-5-(4-fluorophenyl)-6-(hydroxymethyl)-4-oxopyridine-3-carboxamide], the IC50 in test [1] is 100 to 300 nM; in test [2] it was greater than 300 nM.

In the case of `COc1cc2nccc(Oc3ccc(NC(=O)c4c(C)cc(C)n(-c5ccc(F)cc5)c4=O)cc3)c2nc1OC` [Compound 288, N-[4-[(6,7-Dimethoxy-1,5-naphthyridin-4-yl)oxy]phenyl]-1-(4-fluorophenyl)-4,6-dimethyl-2-oxopyridine-3-carboxamide], the IC50 in test [1] and in test [2] was less than 100 nM throughout.

As to `COc1cnc2c(Oc3ccc(NC(=O)c4cnc(C)n(-c5ccc(F)cc5)c4=O)cc3F)ccnc2c1` [Compound 265, N-[3-Fluoro-4-[(7-methoxy-1,5-naphthyridin-4-yl)oxy]phenyl]-1-(4-fluorophenyl)-2-methyl-6-oxopyrimidine-5-carboxamide], the figures for the IC50 in test [1] and in test [2] were greater than 300 nM and 100 to 300 nM, respectively.

As to `COc1cc2nccc(Oc3c(F)cc(NC(=O)c4cn(C)c(C)c(-c5ccc(F)cc5)c4=O)cc3F)c2nc1OC` [Compound 392, N-[4-[(6,7-dimethoxy-1,5-naphthyridin-4-yl)oxy]-3,5-difluorophenyl]-5-(4-fluorophenyl)-1,6-dimethyl-4-oxopyridine-3-carboxamide], the half-inhibitory concentration (IC50) in test [1] and in test [2] was greater than 300 nM each time.

`Cc1ncc(C(=O)Nc2ccc(Oc3ccnc4ccc(OCCN5CCOCC5)nc34)c(F)c2)c(O)c1-c1ccc(F)cc1` [Compound 352, N-[3-fluoro-4-[[6-(2-morpholin-4-ylethoxy)-1,5-naphthyridin-4 yl]oxy]phenyl]-5-(4-fluorophenyl)-4-hydroxy-6-methylpyridine-3-carboxamide]: the half-inhibitory concentration (IC50) in test [1] is 100 to 300 nM; in test [2] it was less than 100 nM.

For `Cc1nc(C)c(-c2ccc(F)cc2)c(O)c1C(=O)Nc1ccc(Oc2ccnc3ccc(OCCN(C)C)nc23)c(F)c1` [Compound 354, N-[4-[[6-[2-(dimethylamino)ethoxy]-1,5-naphthyridin-4-yl]oxy]-3-fluorophenyl]-5-(4-fluorophenyl)-4-hydroxy-2,6-dimethylpyridine-3-carboxamide], the results for the half-inhibitory concentration (IC50) in test [1] and in test [2] were 100 to 300 nM and less than 100 nM, respectively.

For `COc1cnc2c(Oc3ccc(NC(=O)c4nccn(-c5ccc(F)cc5)c4=O)cc3)ccnc2c1` [Compound 382, 4-(4-fluorophenyl)-N-[4-[(7-methoxy-1,5-naphthyridin-4-yl)oxy]phenyl]-3-oxopyrazine-2-carboxamide], the IC50 in test [1] and in test [2] was greater than 300 nM throughout.

For `COCc1c(-c2ccc(F)cc2)c(=O)c(C(=O)Nc2ccc(Oc3ccnc4cc(OC)c(OC)nc34)c(F)c2)cn1C` [Compound 269, N-[4-[(6,7-Dimethoxy-1,5-naphthyridin-4-yl)oxy]-3-fluorophenyl]-5-(4-fluorophenyl)-6-(methoxymethyl)-1-methyl-4-oxopyridine-3-carboxamide], the half-maximal inhibitory concentration (IC50) in test [1] and in test [2] was greater than 300 nM throughout.

As for `Cc1ncc(C(=O)Nc2ccc(Oc3ccnc4cc(-c5cnn(C(F)F)c5)ccc34)cc2)c(O)c1-c1ccc(F)cc1` [Compound 377, N-[4-[7-[1-(difluoromethyl)pyrazol-4-yl]quinolin-4-yl]oxyphenyl]-5-(4-fluorophenyl)-4-hydroxy-6-methylpyridine-3-carboxamide], the concentration for half-maximal inhibition (IC50) in test [1] and in test [2] was less than 100 nM throughout.

With `COc1ccc2nccc(Oc3ccc(NC(=O)c4c(C)cc(C)n(-c5ccc(F)cc5)c4=O)cc3F)c2n1` [Compound 281, N-[3-Fluoro-4-[(6-methoxy-1,5-naphthyridin-4-yl)oxy]phenyl]-1-(4-fluorophenyl)-4,6-dimethyl-2-oxopyridine-3-carboxamide], the IC50 in test [1] and in test [2] was less than 100 nM throughout.

Take `COc1cc2nccc(Oc3ccc(NC(=O)C4=C5CCCN5CC(c5ccc(F)cc5)C4=O)cc3F)c2nc1OC` (racemic) [Compound 373, N-[4-[(6,7-dimethoxy-1,5-naphthyridin-4-yl)oxy]-3-fluorophenyl]-6-(4-fluorophenyl)-7-oxo-2,3,5,6-tetrahydro-1H-indolizine-8-carboxamide]: the IC50 in test [1] and in test [2] was greater than 300 nM in each case.

Consider `COc1cc2nccc(Oc3ccc(NC(=O)c4c(C)cc(C)n(-c5ccc(F)cc5)c4=O)cc3F)c2nc1OC` [Compound 279, N-[4-[(6,7-Dimethoxy-1,5-naphthyridin-4-yl)oxy]-3-fluorophenyl]-1-(4-fluorophenyl)-4,6-dimethyl-2-oxopyridine-3-carboxamide], for which the IC50 in test [1] and in test [2] was less than 100 nM each time.

In the case of `COc1cc2nccc(Oc3ccc(NC(=O)c4ncc(C)n(-c5ccc(F)cc5C)c4=O)cc3F)c2nc1OC` [Compound 393, N-[4-[(6,7-dimethoxy-1,5-naphthyridin-4-yl)oxy]-3-fluorophenyl]-4-(4-fluoro-2-methylphenyl)-5-methyl-3-oxopyrazine-2-carboxamide], the IC50 in test [1] and in test [2] was less than 100 nM throughout.

`COc1cc2nccc(Oc3ccc(NC(=O)c4nccn(-c5ccc(F)cc5)c4=O)cc3F)c2nc1OC` [Compound 379, N-[4-[(6,7-dimethoxy-1,5-naphthyridin-4-yl)oxy]-3-fluorophenyl]-4-(4-fluorophenyl)-3-oxopyrazine-2-carboxamide]: the 50% inhibitory concentration (IC50) in test [1] and in test [2] was less than 100 nM throughout.
